# From patent US20070270350A1, “Methods and Compositions for the Prevention and Treatment of Inflammatory Diseases or Conditions” (MUSC FOUNDATION FOR RESEARCH DEVELOPMENT, priority 2003, published 2007)
# Columns and labels:
# iNOS = assay: LPS-induced iNOS expression and iNOS promoter activity in primary astrocytes (AICAR); assay type: cell-based, rat
# Procedure: Immunoblot Analysis: Cells were harvested in ice-cold lysis buffer (50 mM Tris-HCl, pH 7.4, containing 50 mM NaCl, 1 mM EDTA, 0.5 mM EGTA, 10% glycerol and protease inhibitor cocktail) and protein was estimated using Bradford reagent (Bio-Rad, USA). Fifty microgram of total protein/lane was separated by SDS-PAGE and blotted to nitrocellulose (Amersham Pharmacia Biotech). Blots were blocked for 1 h in 5% nonfat dry milk-TBS-0.1% Tween 20 and incubated overnight with primary antibody (1:1000) in 5% BSA-TBS-0.1% Tween 20 at 4° C. This was followed by incubation of 1 h with appropriate secondary peroxidase conjugated antibody (1:10,000, Sigma). Immunoreactivity was detected using the enhanced chemiluminescence detection method according to the manufacturer's instructions (Amersham Pharmacia Biotech) and subsequent exposure of the membrane to X-ray film. Antisense experiments: To decrease the levels of endogenous AMPK, astrocytes were pretreated for 48 h with 25 μm (of phosphothiorated antisense (AS) oligonucleotide ([NT]) directly against both the ? α1 and α2 ? subunits of AMPK (Culmsee et al., 2001) ? ? ? missense (MS) oligonucleotide ([NT]) was used in control cultures. Oligonucleotides were transfected with OligofectamineTM reagent as per manufacturer's instructions. Northern blot, gene array analysis and RT-PCR for cytokines expression: Total RNA was extracted with Trizol (Gibco) according to the manufacturer's protocol. Northern blot for iNOS was performed with 15 μg of RNA per reaction as described previously (Pahan et al., 1997). β-actin was used as control for RNA loading. Gene expression array for inflammatory cytokines (TNFα, IL-1β, IL-6 and IFN-γ) was used according to the manufacturer's protocol (Superarray). Signal quantitation was determined using imaging densitomter (Bio-Rad Lab, Hercules, Calif.). For RT-PCR, RNA was isolated from treated rat brain cerebral cortex by extracting in Trizol as above. cDNA was prepared from 5 μg of total RNA using poly dT as a primer and Moloney murine leukemia virus reverse transcriptase (Promega) as per manufacturer's instructions. 2 μl of cDNA was used to amplify the following products [given as product name, expected size, and forward (F) and reverse (R) primers used]: iNOS, 730 bp. ([NT]-1β, 623 bp. ([…]-α, 473 bp. ([…], 528 bp. […] Transcriptional assays: Primary astrocytes or microglial cell line (BV2) were transiently transfected with NF- ? B-or iNOS-luciferase reporter gene with ? -galactosidase in the presence or absence of dominant negative AMPKα2 or HA-IKK ? by lipofectamine-2000 (astrocytes) and lipofectamine-Plus (BV2, Invitrogen) according to the manufacturer instructions. pcDNA3 was used to normalize all groups to equal amounts of DNA. Luciferase activity was determined using a luciferase kit (Promega).
# AMPK = assay: Phosphorylation of AMPK and ACC in primary astrocytes (immunoblot); assay type: cell-based, rat
# Procedure: Immunoblot Analysis: Cells were harvested in ice-cold lysis buffer (50 mM Tris-HCl, pH 7.4, containing 50 mM NaCl, 1 mM EDTA, 0.5 mM EGTA, 10% glycerol and protease inhibitor cocktail) and protein was estimated using Bradford reagent (Bio-Rad, USA). Fifty microgram of total protein/lane was separated by SDS-PAGE and blotted to nitrocellulose (Amersham Pharmacia Biotech). Blots were blocked for 1 h in 5% nonfat dry milk-TBS-0.1% Tween 20 and incubated overnight with primary antibody (1:1000) in 5% BSA-TBS-0.1% Tween 20 at 4° C. This was followed by incubation of 1 h with appropriate secondary peroxidase conjugated antibody (1:10,000, Sigma). Immunoreactivity was detected using the enhanced chemiluminescence detection method according to the manufacturer's instructions (Amersham Pharmacia Biotech) and subsequent exposure of the membrane to X-ray film.
# Antisense experiments: To decrease the levels of endogenous AMPK, astrocytes were pretreated for 48 h with 25 μm (of phosphothiorated antisense (AS) oligonucleotide (5′ […]-3′) directly against both the ? α1 and α2 ? subunits of AMPK (Culmsee et al., 2001) ? ? ? missense (MS) oligonucleotide (5′ […]-3′) was used in control cultures. Oligonucleotides were transfected with Oligofectamine™ reagent as per manufacturer's instructions.
# AMPK and IKKα/ ? assays: AMPK activity was assayed in primary rat astrocytes as described (Kim et al., 2001). […]
# [1] = X-ALD patients; cited from earlier work
# [2] = test system: rat model of focal cerebral ischemia (MCAO); assay: Focal cerebral ischemia model (20 min MCAO, reperfusion); assay type: in vivo; settings: GSH up to 150 mg/kg body weight after the onset of ischemia
# Procedure: Animals. A total of 60 male Sprague-Dawley rats (Charles River Laboratories, Wilmington, Mass.) weighing 250-300 g were used in this study. All animals received humane care in compliance with the Medical University of South Carolina's guidance and the National Research Council's criteria for humane care as outlined in ‘Guide for the Care and Use of Laboratory Animals’. Body temperature was monitored by a rectal probe and maintained at 37±0.5° C. by a homeothermic blanket control unit (Harvard Apparatus, Holliston, Mass.). Cranial temperature and mean arterial blood pressure were measured by HSE Plugsys TAM-D and TCAM (Harvard Apparatus) respectively.
# Experimental design and administration of drugs. All animal procedures were approved by the Medical University of South Carolina Animal Review Committee and were in accordance with the guidelines for animal use published by the National Institute of Health. […]
# Measurement of physiological variables. The physiological variables were measured before, during MCA occlusion, at reperfusion and 30 min after reperfusion. The rectal temperature was monitored and maintained at about 37 to 37.6° C. […]
# Evaluation of ischemic infarct and neurological score. […] The infarct area, outlined in white, was acquired by image-analysis software (Photoshop 4.0 Adobe System) and measured by NIH image software. […]
compound,measurement,setting,value
Nc1ncnc2c1c(I)cn2[C@@H]1O[C@H](CO)[C@@H](O)[C@H]1O [5-iodotubercidin],effect on inhibition induced by AICAR on iNOS protein expression,"iNOS; adenosine kinase inhibitor with AICAR and LPS, 24 h",reverse the inhibition
same,effect on AICAR induced phosphorylation of AMPK and ACC,"AMPK; adenosine kinase inhibitor 0.1 μM, 30 min before AICAR 1 mM",blocked
CCCCCCCC/C=C\CCCCCCCC(=O)OCC(COC(=O)CCCCCCC/C=C\CCCCCCCC)OC(=O)CCCCCCC/C=C\CCCCCCCC [trioleate],reduction of VLCFA,[1],50%
"5′ CGCCCGTCGTCGTGCTTCTGC-3′ (phosphorothioate, further chemistry not given here) [antisense (AS), phosphothiorated antisense oligonucleotide against the α1 and α2 subunits of AMPK]",LPS mediated iNOS protein expression,"iNOS; AMPK antisense 25 μM, then LPS 1 μg/ml",significantly induced
same,catalytic subunit AMPKα1 level (immunoblot),"AMPK; 25 μM antisense, 48 h",decreased
"N[C@@H](CCC(=O)N[C@@H](CS)C(=O)NCC(=O)O)C(=O)O [GSH, gamma-glutamylcysteinylglycine]",protective effect in ischemia,[2],no protective effect
